Holding throughout (type): cell-based
Assay [1] relates to Cardiac microvascular endothelial cells (HCMEC). Kind of assay: total protein nitrosylation by western blotting in HCMEC exposed to cocktail. To be noted: HCMEC exposed 30 hours to cocktail; treated at 2, 4, 6, 10 or 24 hours; FIG. 2. As for the experimental part:
(§1) Cardiac microvascular endothelial cells (“HCMEC”) were exposed for 30 hours to a conditioned milieu (“cocktail”) containing a selection of factors (C-reactive protein at 10 μg/ml, TNF-alpha at 10 μg/ml, IL-1β at 10 ng/ml, endothelin-1 at 10 pg/ml and galectin-3 at 20 ng/ml) found in the plasma of ADHF patients. […] The cells from each exposure were harvested at 30 hours for experimental data. Experimental readouts included apoptosis, total protein nitrosylation and lactate dehydrogenase (“LDH”) assay.
The data represented by FIG. 2 is directed to protein nitrosylation which is a postranlational modification caused by peroxynitrite. Peroxynitrite (ONOO^−) results from the scavenging action of superoxide anion (O2^−) on nitric oxide (NO) and results in a decreased bioavailability of the latter. Protein Nitrosylation has several deleterious effects on key vasoactive factors and their function, e.g. prostacyclin synthase is inactivated by nitrosylation.

For assay [2] the test system is unchanged. In words: apoptosis ELISA measuring DNA fragmentation in HCMEC exposed to conditioned milieu (cocktail). Conditions: HCMEC exposed 30 hours to cocktail (C-reactive protein, TNF-alpha, IL-1β, endothelin-1, galectin-3); treated at 2, 4, 6, 10 or 24 hours; FIG. 1. The method, then: as §1
In the data represented by FIG. 1, apoptosis was assessed by performing an ELISA (enzyme-linked immunosorbent assay) measuring DNA fragmentation.

The test system is the same in assay [3]. Kind of assay: LDH assay: LDH release into culture medium by spectrophotometry. To be noted: HCMEC exposed 30 hours to cocktail; treatment at two hours; FIG. 3. As for the experimental part: as §1
FIG. 3 depicts a LDH assay that was performed by measuring LDH release (by spectrophotometry) in the medium where cells were cultured. LDH is a cytoplasmic enzyme released by cells following membrane damage (i.e., cell death).

Regarding relaxin, the “protein nitrosylation (western blotting)” value in assay [1] is listed as “antioxidant property that decreases over time”. In addition, the “cocktail-induced apoptosis (DNA fragmentation ELISA)” value in assay [2] is given as “decrease cocktail-induced apoptosis”. In addition, the “LDH release (cell death)” value in assay [3] was “increase in cell death”.
